The supplement of paper PMC11208160

Assay: recombinant barcode read abundance after kanamycin selection (control-corrected) (log10(CPM+1)); higher = more efficient recombination; sequences stand for … in AGTGCAGAGAAAATCGGCCAGTTTTCTCTGCCTGCAGTCCGCATGCCGT…AGATTTATGCAGCGGACTGCCTTTCTCCCAAAGTGATAAACCGGACAGTATCATGGACCGGTTTTCCCGGTAATCCGTATTTGCAAGGTTGGTTTCACT; site = the 11-nt target
In short: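 IS621 bridge RNA target-binding loops were paired with targets in a pooled library tested in E. coli. After co-electroporation with a donor plasmid, cells were plated in two replicates on chloramphenicol/ampicillin LB agar (control) and on chloramphenicol/ampicillin/kanamycin carrying 0.1 mM IPTG. Barcodes at recombinant junctions were counted as counts per million, averaged and control-corrected to give recombination efficiency. Values are log10(CPM+1).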
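Also: IS621 recombinase and bridge RNA in Escherichia coli cells.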

Sequence	recombinant barcode read abundance (log10)
TAATGATCTTGGGTTCTAACCTGTTGCCT (site TAATGATCTAG)	0.635
TAATGATCTTGGGTTCTAACCTGTTGCCT (site TACTGATCTAG)	0.0744
TAATGATCTTGGGTTCTAACCTGTTGCCT (site TAGTGATCTAG)	0.15
TAATGATCTTGGGTTCTAACCTGTTGCCT (site TATTGATCTAG)	0.155
TAATGCCCTTGGGTTCTAACCTGTTGCCT (site TAATGCCCTAG)	0.634
TAATGCCCTTGGGTTCTAACCTGTTGCCT (site TATTGCCCTAG)	0.13
TAATGTTCTTGGGTTCTAACCTGTTGCAT (site TAATGGTCTAT)	0.0924
TAATGTTCTTGGGTTCTAACCTGTTGCAT (site TAATGTTCTAT)	1.14
TAATTGTCTTGGGTTCTAACCTGTTGCGT (site CAATTGTCTAC)	0.725
TAATTGTCTTGGGTTCTAACCTGTTGCGT (site TAATTGTCTAC)	2.45
TAATTTGCTTGGGTTCTAACCTGTTGCCT (site CGCGAGTCTCA)	0.215
TAATTTGCTTGGGTTCTAACCTGTTGCCT (site TAATTTGCTAG)	0.182
TACAAGCCTTGGGTTCTAACCTGTTGCGG (site TACAAGCCTCC)	1.91
TACAAGCCTTGGGTTCTAACCTGTTGCGG (site TACAAGTCTCT)	0.051
TACAAGTCTTGGGTTCTAACCTGTTGCAG (site TACAAGCCTCC)	0.11
TACAAGTCTTGGGTTCTAACCTGTTGCAG (site TACAAGTCTCT)	1.47
TACACTACTTGGGTTCTAACCTGTTGCAT (site TACACTACTAT)	0.131
TACACTACTTGGGTTCTAACCTGTTGCAT (site TACCCTACTAT)	0.134
TACAGACCTTGGGTTCTAACCTGTTGCAG (site ACGGAGTCTTA)	0.128
TACAGACCTTGGGTTCTAACCTGTTGCAG (site TACAGACCTCT)	1.28
TACAGTCCTTGGGTTCTAACCTGTTGCCT (site TACAGTCCTAG)	1.06
TACAGTCCTTGGGTTCTAACCTGTTGCCT (site TGCACTCCTAG)	0.276

Sequence	recombinant barcode read abundance (log10)
TACCACTCTTGGGTTCTAACCTGTTGCCT (site AACCACTCTAG)	0.335
TACCACTCTTGGGTTCTAACCTGTTGCCT (site CACCACTCTAG)	0.887
TACCACTCTTGGGTTCTAACCTGTTGCCT (site GACCACTCTAG)	0.13
TACCACTCTTGGGTTCTAACCTGTTGCCT (site TACCACTCTAG)	2.24
TACCAGTCTTGGGTTCTAACCTGTTGCTT (site TACCAGTCTAA)	1.74
TACCAGTCTTGGGTTCTAACCTGTTGCTT (site TACCCGTCTAA)	0.0102
TACCAGTCTTGGGTTCTAACCTGTTGCTT (site TACCGGTCTAA)	0.293
TACCAGTCTTGGGTTCTAACCTGTTGCTT (site TACCTGTCTAA)	0.111
TACCCGCCTTGGGTTCTAACCTGTTGCTA (site TACCCGCCTTA)	0.59
TACCCGCCTTGGGTTCTAACCTGTTGCTA (site TACCCTACTTA)	0.066
TACCCGTCTTGGGTTCTAACCTGTTGCTT (site TACCAGTCTAA)	0
TACCCGTCTTGGGTTCTAACCTGTTGCTT (site TACCCGTCTAA)	0.399
TACCCGTCTTGGGTTCTAACCTGTTGCTT (site TACCGGTCTAA)	0.168
TACCCGTCTTGGGTTCTAACCTGTTGCTT (site TACCTGTCTAA)	0.0134
TACCGGCCTTGGGTTCTAACCTGTTGCTT (site TACCGGACTAC)	0.0691
TACCGGCCTTGGGTTCTAACCTGTTGCTT (site TACCGGCCTAA)	0.444
TACCTACCTTGGGTTCTAACCTGTTGCGA (site ATAACTACTAA)	0.0536
TACCTACCTTGGGTTCTAACCTGTTGCGA (site TACCTACCTTC)	1.92
TACCTATCTTGGGTTCTAACCTGTTGCGT (site TACCTAGCTAC)	0.0617
TACCTATCTTGGGTTCTAACCTGTTGCGT (site TACCTATCTAC)	1.83
TACGAACCTTGGGTTCTAACCTGTTGCGT (site TACGAACCTAC)	2.94
TACGAACCTTGGGTTCTAACCTGTTGCGT (site TAGGAGCCTAC)	0.335

Sequence	recombinant barcode read abundance (log10)
TACGCCTCTTGGGTTCTAACCTGTTGCTA (site TACGCCTCTTA)	1.31
TACGCCTCTTGGGTTCTAACCTGTTGCTA (site TGCGCCTCTCA)	0.299
TACGGGGCTTGGGTTCTAACCTGTTGCCT (site TACGAGGCTAG)	0.166
TACGGGGCTTGGGTTCTAACCTGTTGCCT (site TACGCGGCTAG)	0.139
TACGGGGCTTGGGTTCTAACCTGTTGCCT (site TACGGGGCTAG)	0.572
TACGGGGCTTGGGTTCTAACCTGTTGCCT (site TACGTGGCTAG)	0.414
TACGGGTCTTGGGTTCTAACCTGTTGCCT (site AAGGGGTCTAG)	0.0993
TACGGGTCTTGGGTTCTAACCTGTTGCCT (site TACGGGTCTAG)	1.16
TACTAAACTTGGGTTCTAACCTGTTGCCT (site TACTAAACTAG)	0.267
TACTAAACTTGGGTTCTAACCTGTTGCCT (site TACTCAACTAG)	0.0276
TACTAAACTTGGGTTCTAACCTGTTGCCT (site TACTGAACTAG)	0.0606
TACTAAACTTGGGTTCTAACCTGTTGCCT (site TACTTAACTAG)	0.00687
TACTAAGCTTGGGTTCTAACCTGTTGCAT (site TACTAAGCTAA)	0.149
TACTAAGCTTGGGTTCTAACCTGTTGCAT (site TACTAAGCTAC)	0.0997
TACTAAGCTTGGGTTCTAACCTGTTGCAT (site TACTAAGCTAG)	0.274
TACTAAGCTTGGGTTCTAACCTGTTGCAT (site TACTAAGCTAT)	0.523
TACTAAGCTTGGGTTCTAACCTGTTGCGT (site TACTAAGCTAA)	0.238
TACTAAGCTTGGGTTCTAACCTGTTGCGT (site TACTAAGCTAC)	1.1
TACTAAGCTTGGGTTCTAACCTGTTGCGT (site TACTAAGCTAG)	0.122
TACTAAGCTTGGGTTCTAACCTGTTGCGT (site TACTAAGCTAT)	0.149
TACTCAACTTGGGTTCTAACCTGTTGCCT (site TACTAAACTAG)	0.376
TACTCAACTTGGGTTCTAACCTGTTGCCT (site TACTCAACTAG)	0.0463

Sequence	recombinant barcode read abundance (log10)
TACTCAACTTGGGTTCTAACCTGTTGCCT (site TACTGAACTAG)	0.0105
TACTCAACTTGGGTTCTAACCTGTTGCCT (site TACTTAACTAG)	0
TACTCACCTTGGGTTCTAACCTGTTGCTT (site ACTGGTTCTCG)	0.022
TACTCACCTTGGGTTCTAACCTGTTGCTT (site TACTCACCTAA)	0.287
TACTGATCTTGGGTTCTAACCTGTTGCCT (site TAATGATCTAG)	0.0666
TACTGATCTTGGGTTCTAACCTGTTGCCT (site TACTGATCTAG)	0.461
TACTGATCTTGGGTTCTAACCTGTTGCCT (site TAGTGATCTAG)	0.0404
TACTGATCTTGGGTTCTAACCTGTTGCCT (site TATTGATCTAG)	0.0711
TACTTCGCTTGGGTTCTAACCTGTTGCCT (site CACATCGCTAG)	0.042
TACTTCGCTTGGGTTCTAACCTGTTGCCT (site TACTTCGCTAG)	0.193
TAGAAAGCTTGGGTTCTAACCTGTTGCCA (site TAGAAAGCTTG)	0.633
TAGAAAGCTTGGGTTCTAACCTGTTGCCA (site TAGGAAGCTTC)	0.139
TAGAACACTTGGGTTCTAACCTGTTGCTC (site TAGAACACTAA)	0.421
TAGAACACTTGGGTTCTAACCTGTTGCTC (site TAGAACACTCA)	0.151
TAGAACACTTGGGTTCTAACCTGTTGCTC (site TAGAACACTGA)	0.262
TAGAACACTTGGGTTCTAACCTGTTGCTC (site TAGAACACTTA)	0.0884
TAGAACACTTGGGTTCTAACCTGTTGCTT (site TAGAACACTAA)	0.16
TAGAACACTTGGGTTCTAACCTGTTGCTT (site TAGAACACTCA)	0.0447
TAGAACACTTGGGTTCTAACCTGTTGCTT (site TAGAACACTGA)	0.153
TAGAACACTTGGGTTCTAACCTGTTGCTT (site TAGAACACTTA)	0.169
